Experimental data as given in patent US11000033B2, “Ketone or oxime compound, and herbicide” (NISSAN CHEMICAL CORPORATION, priority 2014, dated 2021).

Columns and labels:
Format in all cases: in vivo
Galium spurium = experiment: Test Example 5: herbicidal effect by foliage application, plastic box (symbol Q); conditions: 320 g/ha, 3 weeks after application
Method in brief: (§1)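 After sowing into sterilized diluvial soil and growing two weeks under glass at 25° C. to 30° C., seedlings receive a uniform foliar spray of diluted emulsion. Damage is judged visually three weeks on.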

Cyperus difformis = experiment: Test Example 3: herbicidal effect by foliage application, Wagner pot (symbol E); conditions: application herbicide amount 320 g/ha
Method in brief: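 The compound, formulated as an emulsion and diluted with water to a predetermined rate, is applied uniformly to leaves of two-week-old seedlings growing in submerged alluvial soil at 25–30 °C. Rice is included. Each plant is assessed 3 weeks later using defined criteria.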

corn = experiment: Test Example 5: effect on crop by foliage application, plastic box (symbol c); conditions: 320 g/ha, 3 weeks after application
Method in brief: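 Plants were raised from seed in a greenhouse (25° C. to 30° C.) after sowing in a plastic box of sterilized diluvial soil.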

Digitaria ciliaris = experiment: Test Example 4: herbicidal effect by soil treatment (symbol F); conditions: for F (Digitaria ciliaris) herbicidal effect grade: application herbicide amount 320 g/ha
Method in brief: (§2)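 Seeds were sown in sterilized diluvial soil, covered with about 1.5 cm of soil, and the soil surface was sprayed with a water-diluted emulsion of the compound at a predetermined rate. Plants grew in a greenhouse at 25° C. to 30° C.; effects were scored visually 3 weeks after application.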

Stellaria media = experiment: Test Example 5: herbicidal effect by foliage application, plastic box (symbol P); conditions: 320 g/ha, 3 weeks after application
Method in brief: as §1

rice = experiment: Test Example 4: effect on crop by soil treatment (symbol b); conditions: for b (directly sowed rice plant) effect on crop grade: application herbicide amount 320 g/ha
Method in brief: (§3)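 Seeds were sown in spots on sterilized diluvial soil in a plastic box and covered with about 1.5 cm of soil. Plants were then grown in a greenhouse at 25° C. to 30° C.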

wheat = experiment: Test Example 4: effect on crop by soil treatment (symbol e); conditions: for e (wheat) effect on crop grade: application herbicide amount 320 g/ha
Method in brief: as §3

rapeseed = experiment: Test Example 4: effect on crop by soil treatment (symbol g); conditions: for g (rapeseed) effect on crop grade: application herbicide amount 320 g/ha
Method in brief: as §3

[1] = system: Echinochloa oryzacola Vasing.; experiment: Test Example 2: herbicidal activity, application during weed generation in submerged conditions (symbol A); conditions: Table 23; application herbicide amount 320 g/ha; grade 0-5 by criteria of Test Example 1
Method in brief: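 Treatment timing was the one- to two-leaf stage, with diluted emulsifiable compound dropped onto the paddy water (depth 4 cm) over alluvial soil. All three species grew from a mixed sowing in a 25° C. to 30° C. greenhouse. Injury was judged by eye 3 weeks on.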

transplanted rice plant = experiment: Test Example 1: effect on crop, application before weed generation in submerged conditions (symbol a); conditions: application herbicide amount 320 g/ha
Method in brief: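 Alluvial soil pots flooded to 4 cm water, sown with Echinochloa oryzacola, Scirpus juncoides and Monochoria vaginalis, then transplanted with 2.5 leaf stage rice seedlings; pre-emergence application. Greenhouse 25° C. to 30° C.; scored 0–5 by herbicidal ratio 3 weeks after application.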

soybean = experiment: Test Example 4: effect on crop by soil treatment (symbol d); conditions: for d (soybean) effect on crop grade: application herbicide amount 320 g/ha
Method in brief: as §3

Avena fatua = experiment: Test Example 4: herbicidal effect by soil treatment (symbol I); conditions: for I (Avena fatua) herbicidal effect grade: application herbicide amount 320 g/ha
Method in brief: as §2

CCCC(CC1CC(O)=C(c2c(C)cc(C)cc2C)C1=O)=NOC (stereo not drawn) [1-062]
Q: Galium spurium, herbicidal effect grade (Galium spurium): 0 (Herbicidal ratio of 5% or lower (almost no effect)) | herbicidal effect on E, grade 0-5 (Cyperus difformis): 4 (Herbicidal ratio of 70% or higher and lower than 90%) | c: corn, effect on crop grade (corn): 4 (Herbicidal ratio of 70% or higher and lower than 90%) | F (Digitaria ciliaris) herbicidal effect grade (Digitaria ciliaris): 5 (Herbicidal ratio of 90% or more (almost completely withered)) | P: Stellaria media, herbicidal effect grade (Stellaria media): 0 (Herbicidal ratio of 5% or lower (almost no effect)) | b (directly sowed rice plant) effect on crop grade (rice): 5 (Herbicidal ratio of 90% or more (almost completely withered)) | e (wheat) effect on crop grade (wheat): 0 (Herbicidal ratio of 5% or lower (almost no effect)) | g (rapeseed) effect on crop grade (rapeseed): 3 (Herbicidal ratio of 40% or higher and lower than 70%) | Herbicidal effect grade, A: Echinochloa oryzacola Vasing. [1]: 3 (Herbicidal ratio of 40% or higher and lower than 70%) | Effect grade on crop, a: transplanted rice plant (transplanted rice plant): 5 (Herbicidal ratio of 90% or more (almost completely withered)) | d (soybean) effect on crop grade (soybean): 0 (Herbicidal ratio of 5% or lower (almost no effect)) | I (Avena fatua) herbicidal effect grade (Avena fatua): 0 (Herbicidal ratio of 5% or lower (almost no effect))

CON=C(C)CC1CC(OC(=O)COc2ccccc2OC)=C(c2c(C)cc(C)cc2C)C1=O (stereo not drawn) [1-067]
Q: Galium spurium, herbicidal effect grade (Galium spurium): 2 (Herbicidal ratio of 20% or higher and lower than 40%) | herbicidal effect on E, grade 0-5 (Cyperus difformis): 5 (Herbicidal ratio of 90% or more (almost completely withered)) | c: corn, effect on crop grade (corn): 5 (Herbicidal ratio of 90% or more (almost completely withered)) | F (Digitaria ciliaris) herbicidal effect grade (Digitaria ciliaris): 5 (Herbicidal ratio of 90% or more (almost completely withered)) | P: Stellaria media, herbicidal effect grade (Stellaria media): 3 (Herbicidal ratio of 40% or higher and lower than 70%) | b (directly sowed rice plant) effect on crop grade (rice): 5 (Herbicidal ratio of 90% or more (almost completely withered)) | e (wheat) effect on crop grade (wheat): 5 (Herbicidal ratio of 90% or more (almost completely withered)) | g (rapeseed) effect on crop grade (rapeseed): 4 (Herbicidal ratio of 70% or higher and lower than 90%) | Herbicidal effect grade, A: Echinochloa oryzacola Vasing. [1]: 4 (Herbicidal ratio of 70% or higher and lower than 90%) | Effect grade on crop, a: transplanted rice plant (transplanted rice plant): 5 (Herbicidal ratio of 90% or more (almost completely withered)) | d (soybean) effect on crop grade (soybean): 0 (Herbicidal ratio of 5% or lower (almost no effect)) | I (Avena fatua) herbicidal effect grade (Avena fatua): 3 (Herbicidal ratio of 40% or higher and lower than 70%)

CON=C(CC1CC1)CC1CC(O)=C(c2c(C)cc(C)cc2C)C1=O (stereo not drawn) [1-070]
Q: Galium spurium, herbicidal effect grade (Galium spurium): 2 (Herbicidal ratio of 20% or higher and lower than 40%) | herbicidal effect on E, grade 0-5 (Cyperus difformis): 4 (Herbicidal ratio of 70% or higher and lower than 90%) | c: corn, effect on crop grade (corn): 4 (Herbicidal ratio of 70% or higher and lower than 90%) | F (Digitaria ciliaris) herbicidal effect grade (Digitaria ciliaris): 4 (Herbicidal ratio of 70% or higher and lower than 90%) | P: Stellaria media, herbicidal effect grade (Stellaria media): 0 (Herbicidal ratio of 5% or lower (almost no effect)) | b (directly sowed rice plant) effect on crop grade (rice): 5 (Herbicidal ratio of 90% or more (almost completely withered)) | e (wheat) effect on crop grade (wheat): 0 (Herbicidal ratio of 5% or lower (almost no effect)) | g (rapeseed) effect on crop grade (rapeseed): 0 (Herbicidal ratio of 5% or lower (almost no effect)) | Herbicidal effect grade, A: Echinochloa oryzacola Vasing. [1]: 4 (Herbicidal ratio of 70% or higher and lower than 90%) | Effect grade on crop, a: transplanted rice plant (transplanted rice plant): 4 (Herbicidal ratio of 70% or higher and lower than 90%) | d (soybean) effect on crop grade (soybean): 0 (Herbicidal ratio of 5% or lower (almost no effect)) | I (Avena fatua) herbicidal effect grade (Avena fatua): 0 (Herbicidal ratio of 5% or lower (almost no effect))

CON=C(C)CC1CC(OC(=O)COc2ccccc2[N+](=O)[O-])=C(c2c(C)cc(C)cc2C)C1=O (stereo not drawn) [1-071]
Q: Galium spurium, herbicidal effect grade (Galium spurium): 2 (Herbicidal ratio of 20% or higher and lower than 40%) | herbicidal effect on E, grade 0-5 (Cyperus difformis): 5 (Herbicidal ratio of 90% or more (almost completely withered)) | c: corn, effect on crop grade (corn): 5 (Herbicidal ratio of 90% or more (almost completely withered)) | F (Digitaria ciliaris) herbicidal effect grade (Digitaria ciliaris): 5 (Herbicidal ratio of 90% or more (almost completely withered)) | P: Stellaria media, herbicidal effect grade (Stellaria media): 0 (Herbicidal ratio of 5% or lower (almost no effect)) | b (directly sowed rice plant) effect on crop grade (rice): 5 (Herbicidal ratio of 90% or more (almost completely withered)) | e (wheat) effect on crop grade (wheat): 4 (Herbicidal ratio of 70% or higher and lower than 90%) | g (rapeseed) effect on crop grade (rapeseed): 4 (Herbicidal ratio of 70% or higher and lower than 90%) | Herbicidal effect grade, A: Echinochloa oryzacola Vasing. [1]: 5 (Herbicidal ratio of 90% or more (almost completely withered)) | Effect grade on crop, a: transplanted rice plant (transplanted rice plant): 5 (Herbicidal ratio of 90% or more (almost completely withered)) | d (soybean) effect on crop grade (soybean): 0 (Herbicidal ratio of 5% or lower (almost no effect)) | I (Avena fatua) herbicidal effect grade (Avena fatua): 4 (Herbicidal ratio of 70% or higher and lower than 90%)

CON=C(C)CC1CC(OC(=O)COc2ccc(C)cc2)=C(c2c(C)cc(C)cc2C)C1=O (stereo not drawn) [1-072]
Q: Galium spurium, herbicidal effect grade (Galium spurium): 2 (Herbicidal ratio of 20% or higher and lower than 40%) | herbicidal effect on E, grade 0-5 (Cyperus difformis): 4 (Herbicidal ratio of 70% or higher and lower than 90%) | c: corn, effect on crop grade (corn): 5 (Herbicidal ratio of 90% or more (almost completely withered)) | F (Digitaria ciliaris) herbicidal effect grade (Digitaria ciliaris): 5 (Herbicidal ratio of 90% or more (almost completely withered)) | P: Stellaria media, herbicidal effect grade (Stellaria media): 2 (Herbicidal ratio of 20% or higher and lower than 40%) | b (directly sowed rice plant) effect on crop grade (rice): 5 (Herbicidal ratio of 90% or more (almost completely withered)) | e (wheat) effect on crop grade (wheat): 4 (Herbicidal ratio of 70% or higher and lower than 90%) | g (rapeseed) effect on crop grade (rapeseed): 4 (Herbicidal ratio of 70% or higher and lower than 90%) | Herbicidal effect grade, A: Echinochloa oryzacola Vasing. [1]: 5 (Herbicidal ratio of 90% or more (almost completely withered)) | Effect grade on crop, a: transplanted rice plant (transplanted rice plant): 5 (Herbicidal ratio of 90% or more (almost completely withered)) | d (soybean) effect on crop grade (soybean): 0 (Herbicidal ratio of 5% or lower (almost no effect)) | I (Avena fatua) herbicidal effect grade (Avena fatua): 4 (Herbicidal ratio of 70% or higher and lower than 90%)

CON=C(C)CC1CC(OC(=O)COc2cccc(C#N)c2)=C(c2c(C)cc(C)cc2C)C1=O (stereo not drawn) [1-074]
Q: Galium spurium, herbicidal effect (criteria 0-5) (Galium spurium): 1 (Herbicidal ratio of 5% or higher and lower than 20%) | herbicidal effect on E, grade 0-5 (Cyperus difformis): 5 (Herbicidal ratio of 90% or more (almost completely withered)) | c: corn, effect on crop (criteria 0-5) (corn): 5 (Herbicidal ratio of 90% or more (almost completely withered)) | F (Digitaria ciliaris) herbicidal effect grade (Digitaria ciliaris): 5 (Herbicidal ratio of 90% or more (almost completely withered)) | P: Stellaria media, herbicidal effect (criteria 0-5) (Stellaria media): 1 (Herbicidal ratio of 5% or higher and lower than 20%) | b (directly sowed rice plant) effect on crop grade (rice): 5 (Herbicidal ratio of 90% or more (almost completely withered)) | e (wheat) effect on crop grade (wheat): 4 (Herbicidal ratio of 70% or higher and lower than 90%) | g (rapeseed) effect on crop grade (rapeseed): 4 (Herbicidal ratio of 70% or higher and lower than 90%) | Herbicidal effect grade, A: Echinochloa oryzacola Vasing. [1]: 5 (Herbicidal ratio of 90% or more (almost completely withered)) | Effect grade on crop, a: transplanted rice plant (transplanted rice plant): 5 (Herbicidal ratio of 90% or more (almost completely withered)) | d (soybean) effect on crop grade (soybean): 0 (Herbicidal ratio of 5% or lower (almost no effect)) | I (Avena fatua) herbicidal effect grade (Avena fatua): 4 (Herbicidal ratio of 70% or higher and lower than 90%)

CON=C(CC1CC(O)=C(c2c(C)cc(C)cc2C)C1=O)C1CCCC1 (stereo not drawn) [1-078]
Q: Galium spurium, herbicidal effect (criteria 0-5) (Galium spurium): 0 (Herbicidal ratio of 5% or lower (almost no effect)) | herbicidal effect on E, grade 0-5 (Cyperus difformis): 0 (Herbicidal ratio of 5% or lower (almost no effect)) | c: corn, effect on crop (criteria 0-5) (corn): 3 (Herbicidal ratio of 40% or higher and lower than 70%) | F: Digitaria ciliaris, herbicidal effect grade (Digitaria ciliaris; 320 g/ha): 5 (Herbicidal ratio of 90% or more (almost completely withered)) | P: Stellaria media, herbicidal effect (criteria 0-5) (Stellaria media): 0 (Herbicidal ratio of 5% or lower (almost no effect)) | b: directly sowed rice plant, effect grade on crop (rice; 320 g/ha): 5 (Herbicidal ratio of 90% or more (almost completely withered)) | e: wheat, effect grade on crop (wheat; 320 g/ha): 0 (Herbicidal ratio of 5% or lower (almost no effect)) | g: rapeseed, effect grade on crop (rapeseed; 320 g/ha): 1 (Herbicidal ratio of 5% or higher and lower than 20%) | Herbicidal effect grade, A: Echinochloa oryzacola Vasing. [1]: 4 (Herbicidal ratio of 70% or higher and lower than 90%) | Effect grade on crop, a: transplanted rice plant (transplanted rice plant): 5 (Herbicidal ratio of 90% or more (almost completely withered)) | d: soybean, effect grade on crop (soybean; 320 g/ha): 0 (Herbicidal ratio of 5% or lower (almost no effect)) | I: Avena fatua, herbicidal effect grade (Avena fatua; 320 g/ha): 0 (Herbicidal ratio of 5% or lower (almost no effect))
